The values below come from patent US10947289B2, “Glyco-modified atrial natriuretic peptide” (priority 2013, dated 2021).

In this assay the target is T1, human GC-A (Homo sapiens, UniProt P16066).
T1 construct: expressed in transfected cells; host or cells: CHO cells
T1 sequence (P16066 33-1061): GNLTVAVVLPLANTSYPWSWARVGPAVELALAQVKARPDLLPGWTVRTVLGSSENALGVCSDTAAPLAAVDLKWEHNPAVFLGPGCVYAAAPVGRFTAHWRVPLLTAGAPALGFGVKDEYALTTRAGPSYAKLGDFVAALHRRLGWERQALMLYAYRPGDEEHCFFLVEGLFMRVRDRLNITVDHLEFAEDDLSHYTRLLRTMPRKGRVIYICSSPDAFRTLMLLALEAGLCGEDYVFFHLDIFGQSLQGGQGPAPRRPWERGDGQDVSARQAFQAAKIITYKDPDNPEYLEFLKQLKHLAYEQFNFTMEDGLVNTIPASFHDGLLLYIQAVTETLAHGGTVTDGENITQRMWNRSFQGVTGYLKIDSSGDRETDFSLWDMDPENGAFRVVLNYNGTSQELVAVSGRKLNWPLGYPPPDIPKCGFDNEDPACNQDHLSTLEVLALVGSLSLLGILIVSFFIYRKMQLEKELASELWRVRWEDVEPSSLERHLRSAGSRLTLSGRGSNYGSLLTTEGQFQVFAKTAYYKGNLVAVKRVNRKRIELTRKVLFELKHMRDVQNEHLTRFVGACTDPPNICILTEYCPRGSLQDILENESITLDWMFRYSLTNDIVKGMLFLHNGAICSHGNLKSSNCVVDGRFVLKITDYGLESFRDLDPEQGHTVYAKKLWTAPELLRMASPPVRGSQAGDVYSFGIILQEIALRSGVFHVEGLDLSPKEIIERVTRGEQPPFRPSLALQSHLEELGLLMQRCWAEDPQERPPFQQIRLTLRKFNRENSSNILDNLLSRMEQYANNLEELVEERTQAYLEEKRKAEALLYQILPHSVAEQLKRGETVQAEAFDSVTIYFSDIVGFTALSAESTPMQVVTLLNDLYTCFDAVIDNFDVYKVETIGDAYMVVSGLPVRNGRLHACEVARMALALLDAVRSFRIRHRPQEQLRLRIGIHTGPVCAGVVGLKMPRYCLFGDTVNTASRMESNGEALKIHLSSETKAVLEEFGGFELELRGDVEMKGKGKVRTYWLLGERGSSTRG
Description: cGMP elevating activity in CHO/human GC-A cells (Test Example 1). In kind it is cell-based. In a few lines:
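cGMP in lysates was read by HTRF after a 15 min peptide exposure of GC-A-expressing CHO cells in a CO2 incubator, following 10 min room-temperature preincubation with 1.6 mM IBMX in KRB. T/C values were normalised between solvent wells (0) and 1 nM ANP wells (1).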

As usually defined, the EC50 is the concentration that produces a half-maximal response. Low values mean a more potent agent, high ones a less potent agent. As for `CC[C@H](C)[C@@H]1NC(=O)[C@H](CCCNC(=N)N)NC(=O)[C@H](CC(=O)O)NC(=O)[C@H](CCSC)NC(=O)[C@H](CCCNC(=N)N)NC(=O)CNC(=O)CNC(=O)[C@H](Cc2ccccc2)NC(=O)[C@@H](NC(=O)[C@H](CO)NC(=O)[C@H](CO)NC(=O)[C@H](CCCNC(=N)N)NC(=O)[C@H](CCCNC(=N)N)NC(=O)[C@H](CC(C)C)NC(=O)[C@H](CO)NC(=O)CCOCCOCCOCCOCCNC(=O)[C@H](CCCCNC(=O)CCSCC(=O)NCCO[C@@H]2O[C@H](CO)[C@@H](O[C@@H]3O[C@H](CO)[C@@H](O[C@@H]4O[C@H](CO[C@H]5O[C@H](CO)[C@@H](O)[C@H](O)[C@@H]5O[C@@H]5O[C@H](CO)[C@@H](O[C@@H]6O[C@H](CO[C@]7(C(=O)O)C[C@H](O)[C@@H](NC(C)=O)[C@H]([C@H](O)[C@H](O)CO)O7)[C@H](O)[C@H](O)[C@H]6O)[C@H](O)[C@H]5NC(C)=O)[C@@H](O)[C@H](O[C@H]5O[C@H](CO)[C@@H](O)[C@H](O)[C@@H]5O[C@@H]5O[C@H](CO)[C@@H](O[C@@H]6O[C@H](CO[C@]7(C(=O)O)C[C@H](O)[C@@H](NC(C)=O)[C@H]([C@H](O)[C@H](O)CO)O7)[C@H](O)[C@H](O)[C@H]6O)[C@H](O)[C@H]5NC(C)=O)[C@@H]4O)[C@H](O)[C@H]3NC(C)=O)[C@H](O)[C@H]2NC(C)=O)NC(=O)CCSCC(=O)NCCO[C@@H]2O[C@H](CO)[C@@H](O[C@@H]3O[C@H](CO)[C@@H](O[C@@H]4O[C@H](CO[C@H]5O[C@H](CO)[C@@H](O)[C@H](O)[C@@H]5O[C@@H]5O[C@H](CO)[C@@H](O[C@@H]6O[C@H](CO[C@]7(C(=O)O)C[C@H](O)[C@@H](NC(C)=O)[C@H]([C@H](O)[C@H](O)CO)O7)[C@H](O)[C@H](O)[C@H]6O)[C@H](O)[C@H]5NC(C)=O)[C@@H](O)[C@H](O[C@H]5O[C@H](CO)[C@@H](O)[C@H](O)[C@@H]5O[C@@H]5O[C@H](CO)[C@@H](O[C@@H]6O[C@H](CO[C@]7(C(=O)O)C[C@H](O)[C@@H](NC(C)=O)[C@H]([C@H](O)[C@H](O)CO)O7)[C@H](O)[C@H](O)[C@H]6O)[C@H](O)[C@H]5NC(C)=O)[C@@H]4O)[C@H](O)[C@H]3NC(C)=O)[C@H](O)[C@H]2NC(C)=O)CSSC[C@@H](C(=O)N[C@@H](CC(N)=O)C(=O)N[C@@H](CO)C(=O)N[C@@H](Cc2ccccc2)C(=O)N[C@@H](CCCNC(=N)N)C(=O)N[C@@H](Cc2ccc(O)cc2)C(=O)O)NC(=O)CNC(=O)[C@H](CC(C)C)NC(=O)CNC(=O)[C@H](CO)NC(=O)[C@H](CCC(N)=O)NC(=O)[C@H](C)NC(=O)CNC1=O` [Compound 2-34, SG-thioacetamide-(SG-thioacetamide-)Lys-PEG-(3)-hANP(1-28)], the EC50 was 0.53 nM.
Next, `CC[C@H](C)[C@@H]1NC(=O)[C@H](CCCNC(=N)N)NC(=O)[C@H](CC(=O)O)NC(=O)[C@H](CCSC)NC(=O)[C@H](CCCNC(=N)N)NC(=O)CNC(=O)CNC(=O)[C@H](Cc2ccccc2)NC(=O)[C@@H](NC(=O)[C@H](CO)NC(=O)[C@H](CO)NC(=O)[C@H](CCCNC(=N)N)NC(=O)[C@H](CCCNC(=N)N)NC(=O)[C@H](CC(C)C)NC(=O)[C@H](CO)NC(=O)CCOCCOCCOCCOCCNC(=O)[C@H](CCCCNC(=O)CO[C@@H]2O[C@H](CO)[C@@H](O[C@@H]3O[C@H](CO)[C@@H](O[C@@H]4O[C@H](CO[C@H]5O[C@H](CO)[C@@H](O)[C@H](O)[C@@H]5O[C@@H]5O[C@H](CO)[C@@H](O[C@@H]6O[C@H](CO[C@]7(C(=O)O)C[C@H](O)[C@@H](NC(C)=O)[C@H]([C@H](O)[C@H](O)CO)O7)[C@H](O)[C@H](O)[C@H]6O)[C@H](O)[C@H]5NC(C)=O)[C@@H](O)[C@H](O[C@H]5O[C@H](CO)[C@@H](O)[C@H](O)[C@@H]5O[C@@H]5O[C@H](CO)[C@@H](O[C@@H]6O[C@H](CO[C@]7(C(=O)O)C[C@H](O)[C@@H](NC(C)=O)[C@H]([C@H](O)[C@H](O)CO)O7)[C@H](O)[C@H](O)[C@H]6O)[C@H](O)[C@H]5NC(C)=O)[C@@H]4O)[C@H](O)[C@H]3NC(C)=O)[C@H](O)[C@H]2NC(C)=O)NC(=O)CO[C@@H]2O[C@H](CO)[C@@H](O[C@@H]3O[C@H](CO)[C@@H](O[C@@H]4O[C@H](CO[C@H]5O[C@H](CO)[C@@H](O)[C@H](O)[C@@H]5O[C@@H]5O[C@H](CO)[C@@H](O[C@@H]6O[C@H](CO[C@]7(C(=O)O)C[C@H](O)[C@@H](NC(C)=O)[C@H]([C@H](O)[C@H](O)CO)O7)[C@H](O)[C@H](O)[C@H]6O)[C@H](O)[C@H]5NC(C)=O)[C@@H](O)[C@H](O[C@H]5O[C@H](CO)[C@@H](O)[C@H](O)[C@@H]5O[C@@H]5O[C@H](CO)[C@@H](O[C@@H]6O[C@H](CO[C@]7(C(=O)O)C[C@H](O)[C@@H](NC(C)=O)[C@H]([C@H](O)[C@H](O)CO)O7)[C@H](O)[C@H](O)[C@H]6O)[C@H](O)[C@H]5NC(C)=O)[C@@H]4O)[C@H](O)[C@H]3NC(C)=O)[C@H](O)[C@H]2NC(C)=O)CSSC[C@@H](C(=O)N[C@@H](CC(N)=O)C(=O)N[C@@H](CO)C(=O)N[C@@H](Cc2ccccc2)C(=O)N[C@@H](CCCNC(=N)N)C(=O)N[C@@H](Cc2ccc(O)cc2)C(=O)O)NC(=O)CNC(=O)[C@H](CC(C)C)NC(=O)CNC(=O)[C@H](CO)NC(=O)[C@H](CCC(N)=O)NC(=O)[C@H](C)NC(=O)CNC1=O` [Compound 2-35, SG-(SG-)Lys-PEG(3)-hANP(1-28)]: 0.31 nM.
